# Reference: PubChem BioAssay (NCI)
#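 Step 1: Grow cells in 96-well plates. Step 2: Expose to compound for 48 hours at 5 concentrations. Step 3: Interpolate endpoints linearly; if unreached, use highest concentration. GI50 marks 50% less growth. At the TGI there is no net growth.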 Where a SMILES comes first, the peptide text is derived from it. [ ]: non-standard residue; d: D form. The star is where a group is joined. Phe(4-NO2) = N[CH](Cc1ccc([N+](=O)[O-])cc1)C(=O)O; Cbz = O=C(OCc1ccccc1)*
# Assays:
# Assay in all cases: growth of human tumour cells (NCI), 48 h
# HT29 colon = tested on: HT29 colon
# SR leukemia = tested on: SR leukemia
# NCI/ADR-RES ovarian = tested on: NCI/ADR-RES ovarian
# MDA-N = tested on: MDA-N
# IGROV1 ovarian = tested on: IGROV1 ovarian
# HCC-2998 colon = tested on: HCC-2998 colon
# HOP-92 NSCLC = tested on: HOP-92 NSCLC
# DU-145 prostate = tested on: DU-145 prostate
# KM12 colon = tested on: KM12 colon
# LOX IMVI melanoma = tested on: LOX IMVI melanoma
# HOP-62 NSCLC = tested on: HOP-62 NSCLC
# PC-3 prostate = tested on: PC-3 prostate
# SF-268 CNS = tested on: SF-268 CNS
# MCF7 breast = tested on: MCF7 breast
# SN12C renal = tested on: SN12C renal
# OVCAR-8 ovarian = tested on: OVCAR-8 ovarian
# MOLT-4 leukemia = tested on: MOLT-4 leukemia
# SNB-19 CNS = tested on: SNB-19 CNS
# MDA-MB-435 = tested on: MDA-MB-435
SMILES,TGI (HT29 colon) [µM],TGI (SR leukemia) [µM],TGI (NCI/ADR-RES ovarian) [µM],TGI (MDA-N) [µM],TGI (IGROV1 ovarian) [µM],TGI (HCC-2998 colon) [µM],TGI (HOP-92 NSCLC) [µM],TGI (DU-145 prostate) [µM],TGI (KM12 colon) [µM],TGI (LOX IMVI melanoma) [µM],TGI (HOP-62 NSCLC) [µM],TGI (PC-3 prostate) [µM],TGI (SF-268 CNS) [µM],TGI (MCF7 breast) [µM],TGI (SN12C renal) [µM],TGI (OVCAR-8 ovarian) [µM],TGI (MOLT-4 leukemia) [µM],TGI (SNB-19 CNS) [µM],TGI (MDA-MB-435) [µM],GI50 (SNB-19 CNS) [µM]
O=c1c(-c2c(-c3ccccc3)oc3ccc(Cl)cc3c2=O)c(-c2ccccc2)oc2ccc(Cl)cc12,> 100,> 100,> 100,> 100,> 100,> 100,> 95,> 100,> 100,> 100,> 61.4,> 100,> 92.3,> 100,> 100,> 100,> 100,> 100,> 100,–
C1=Nc2ccc(cc2)N=Cc2ccccc2OCc2cccc(n2)COc2ccccc21,> 100,> 100,> 100,> 100,> 100,> 100,> 100,> 100,> 100,> 100,> 100,> 100,–,> 100,> 100,> 100,> 100,75.1,> 100,–
COc1ccc(C2=Nn3c(nc4sc(C)c(C)c4c3=O)SC2)cc1,> 100,> 100,> 100,> 100,> 100,> 100,> 100,> 100,> 100,> 100,> 100,> 100,> 100,> 100,> 100,> 100,> 100,–,> 100,–
CCOC(=O)[C@@H]1OC(c2ccccc2)O[C@H]1C(=O)OCC,> 100,> 100,> 100,> 100,> 100,–,> 100,> 100,> 100,> 100,> 100,> 100,> 100,> 100,> 100,> 100,> 100,> 100,> 100,–
O=C(Nc1cc2c(=O)[nH]c3ccccc3c2oc1=O)c1cnccn1,> 100,> 100,> 100,> 100,> 100,> 100,> 100,> 100,> 100,> 100,–,> 100,–,> 100,> 100,> 100,> 100,> 100,> 100,–
COc1ccc2oc(=Nc3ccccc3)c(C(N)=O)cc2c1,> 100,> 100,> 100,> 100,> 100,> 100,> 100,> 100,> 100,> 100,98.4,> 100,> 100,> 100,> 100,> 100,> 100,> 45.1,> 24.4,–
COc1ccc(/C=N/n2c(=O)[nH]c3ccccc3c2=O)cc1,> 100,> 100,> 100,> 100,> 100,–,> 100,> 100,> 100,> 100,> 100,> 100,> 100,> 100,> 100,> 100,> 100,> 100,> 100,–
CCc1n[nH]c(=O)n1N1C(=O)CCC1=O,> 100,> 100,> 100,> 100,> 100,> 100,–,> 100,> 100,> 100,> 100,> 100,> 100,> 100,> 100,> 100,> 100,> 100,> 100,–
O=C(NCCc1ccccc1)[C@H]1CCCC[C@@H]1CCO,> 100,> 100,> 100,> 100,> 100,> 100,> 100,> 100,> 100,> 100,> 100,> 100,> 100,> 100,> 100,> 100,> 100,–,> 100,–
O=C(/C=C/c1ccc(O)c(O)c1)OCc1ccccc1,> 100,19.7,72.2,> 100,13.5,> 100,58,39.5,> 100,71.6,72.4,85.1,45.8,37.9,51.8,–,39.1,97.6,97.3,–
COc1cccc(C(=O)Nc2c3ccccc3nc3ccccc23)c1OC,> 100,> 100,> 100,> 100,> 100,> 100,–,> 100,> 100,> 100,> 100,> 100,> 100,> 100,> 100,> 100,> 100,> 100,> 100,–
O=C1C=CC(=O)c2c1cc([N+](=O)[O-])c1ccoc21,76.7,> 100,> 70.8,35.4,51.9,41.6,5,> 58.6,31.9,> 44.5,31.8,30.7,> 65.1,44.3,38.1,> 72.3,–,39.6,26.2,–
CC(=O)OCC1OC(n2c(C#N)cc(=O)[nH]c2=O)CC1OC(C)=O (stereo not given),> 100,> 100,> 100,> 100,> 100,–,> 100,> 100,> 100,> 100,> 100,> 100,> 100,> 100,> 100,> 100,> 100,> 100,> 100,–
CC1=CC=C2c3ccccc3C=CN2C(=O)C1,> 100,> 100,> 100,> 100,> 100,> 100,–,> 100,> 100,> 100,> 100,> 100,> 100,> 100,> 100,> 100,> 100,> 100,> 100,–
Cc1cc(S(=O)(=O)NC(=C(C#N)C#N)[n+]2ccc(N(C)C)cc2)c([S-])cc1Cl,> 100,> 100,> 100,> 100,> 100,> 100,> 100,> 100,> 100,–,> 100,> 100,> 100,> 100,> 100,> 100,> 100,> 100,> 100,–
CCOC(=O)CCC(NC(=O)OCc1ccccc1)C(=O)NC(CCC(=O)OCC)C(=O)NC(Cc1ccc([N+](=O)[O-])cc1)C(=O)NC(CCC(=O)OCC)C(=O)NC(CCC(=O)OCC)C(=O)OCC (stereo not given) (Cbz-E(OEt)E(OEt)[Phe(4-NO2)]E(OEt)E(OEt)-OEt; configuration not given here),> 100,> 100,> 100,> 100,> 100,–,–,> 100,> 100,> 100,> 100,> 100,–,> 100,> 100,> 100,> 100,> 100,> 100,–
CCCCCN1CCN(c2ncccn2)CC1,> 100,> 100,> 100,> 100,> 100,> 100,> 100,> 100,> 100,> 100,> 100,> 100,> 100,> 100,> 100,> 100,–,> 100,> 100,–
CC(C)(C)N1C(=O)c2ccccc2C1(O)C(F)(F)F (stereo not given),> 100,> 100,> 100,> 100,> 100,> 100,> 100,> 100,> 100,> 100,> 100,> 100,> 100,> 100,> 100,> 100,–,> 100,> 100,–
CC(C)(C)OC(=O)[C@@H]1CCC(=S)N1Cc1ccccc1,–,> 100,> 100,> 100,> 100,> 100,> 100,> 100,> 100,> 100,–,> 100,–,> 100,> 100,> 100,> 100,> 100,> 100,–
O=C1Oc2ccccc2C(=O)/C1=C/N1C(=O)/C(=C/c2ccc3c(c2)OCO3)SC1=S,35.9,31.4,48.4,77.7,37.2,28.9,–,49.1,32,> 58.8,24.4,30.6,32.6,> 58.4,51.6,40.9,35.9,37.1,39.7,12.6
COc1cc(C2SCC(=O)N2Cc2ccccc2)cc(OC)c1OC (stereo not given),> 100,> 100,> 100,> 100,> 100,> 100,71.8,> 100,> 100,> 100,–,> 100,> 100,> 100,> 100,> 100,> 100,> 100,> 100,–
Cc1ccccc1N=CN(C)C,> 100,> 100,> 100,> 100,> 100,–,> 100,> 100,–,> 100,> 100,> 100,> 100,> 100,> 100,> 100,> 100,> 100,> 100,–
CCOC(=O)N1CC2(C)C=CC1C(C(=O)OC)C2 (stereo not given),> 100,> 100,> 100,> 100,> 100,> 100,–,> 100,> 100,> 100,> 100,> 100,> 100,> 100,> 100,> 100,> 100,> 100,> 100,–
Cn1c2c(c3ccccc31)CCN1OCC=C[C@@H](C(=O)O)[C@@H]21,> 100,> 100,> 100,> 100,> 100,> 100,> 100,> 100,> 100,> 100,> 100,> 100,> 100,> 100,> 100,> 100,–,> 100,> 100,–
O=C1c2sc(-c3ccc(F)cc3)cc2-n2cccc21,> 100,> 100,> 100,> 100,38.3,> 100,–,> 100,> 100,> 100,37.3,> 100,52.1,> 100,49.6,> 100,> 100,39.6,> 100,–
CCN1CCN(c2nc3ccccc3nc2C(=O)c2ccc(OC)cc2)CC1,> 100,93.4,> 100,> 100,> 100,> 100,> 100,> 100,> 100,> 100,55.5,> 100,> 100,58.8,–,> 100,> 100,> 100,> 100,–
